Reference: patent publication US20230167118A1, “DEGRADATION OF BRUTON'S TYROSINE KINASE (BTK) BY CONJUGATION OF BTK INIDBITORS WITH E3 LIGASE LIGAND AND METHODS OF USE” (BEIGENE, LTD., priority 2020, published 2023)

Columns and labels:
[1] = target: T1, BTK (Homo sapiens, UniProt Q06187); experiment: Cell Degradation: BTK degradation in TMD-8 cells, HTRF assay; type: cell-based; details: 6 h treatment, IC50 (DC50) of BTK degradation
T1 construct: High control=Cell group with added DMSO and without compound, indicating microplate readings without BTK degradation; endogenous in cells; host or cells: TMD-8 cells
T1 sequence (Q06187 whole entry): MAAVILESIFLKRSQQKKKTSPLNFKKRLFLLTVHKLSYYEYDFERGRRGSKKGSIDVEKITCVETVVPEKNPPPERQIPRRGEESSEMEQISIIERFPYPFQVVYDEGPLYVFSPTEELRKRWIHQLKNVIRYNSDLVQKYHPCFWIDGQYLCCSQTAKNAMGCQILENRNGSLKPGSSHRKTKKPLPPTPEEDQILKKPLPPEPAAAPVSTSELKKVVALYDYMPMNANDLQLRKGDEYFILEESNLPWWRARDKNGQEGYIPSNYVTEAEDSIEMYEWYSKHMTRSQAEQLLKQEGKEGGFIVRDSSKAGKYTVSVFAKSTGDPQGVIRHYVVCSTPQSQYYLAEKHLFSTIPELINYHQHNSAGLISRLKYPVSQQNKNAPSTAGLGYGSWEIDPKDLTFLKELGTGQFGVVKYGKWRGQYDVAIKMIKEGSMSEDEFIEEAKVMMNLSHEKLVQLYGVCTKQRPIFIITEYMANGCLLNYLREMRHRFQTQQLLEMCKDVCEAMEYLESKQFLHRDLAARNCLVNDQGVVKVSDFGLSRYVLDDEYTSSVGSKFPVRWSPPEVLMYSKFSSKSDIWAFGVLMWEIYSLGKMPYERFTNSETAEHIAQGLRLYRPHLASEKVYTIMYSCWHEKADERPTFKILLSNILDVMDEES
Summary of the method: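 BTK levels read by HTRF (665 vs 620 nm) in lysates of TMD-8 cells after 6 h compound exposure (eight doses, 6-fold steps, 0.2% DMSO). Percent degradation relative to controls; four-parameter curve fitting gave DC50, with Dmax the top degradation.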

[2] = test system: HEK-293 cells; experiment: HEK-293 Cytotoxicity Assay (CellTiter-Glo); type: cell-based; details: Homo sapiens, HEK293, 72 h incubation, CellTiter-Glo luminescence
Summary of the method: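 Four-parameter fit of % inhibition gives IC50, from CellTiter-Glo luminescent viability read-out. Cells exposed for 72 h to an 8-point, 4-fold series at 0.2% DMSO.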

Row | SMILES | DC50 [1] [nM] | IC50 [2] [nM]
1 | Cc1cc(-c2ncnc3[nH]c(-c4ccc(C5CN(CC6CCN(c7ccc(N8CCC(=O)NC8=O)cc7)CC6)C5)nc4)cc23)ccc1[C@@H](C)NC(=O)c1nc(C(C)(C)C)no1 [Example 179, (R)-3-(tert-butyl)-N-(1-(4-(6-(6-(1-((1-(4-(2,4-dioxotetrahydropyrimidin-1(2H)-yl)phenyl)piperidin-4-yl)methyl)azetidin-3-yl)pyridin-3-yl)-7H-pyrrolo[2,3-d]pyrimidin-4-yl)-2-methylphenyl)ethyl)-1,2,4-oxadiazole-5-carboxamide] | 0.74 | 6040
2 | Cc1cc(-c2ncnc3[nH]c(-c4ccc(N5CCN(Cc6ccc(C7CCC(=O)NC7=O)c(F)c6)CC5)cn4)cc23)ccc1[C@@H](C)NC(=O)c1nc(C(C)(C)C)no1 (stereo partly drawn) [Example 181, 3-(tert-butyl)-N-((1R)-1-(4-(6-(5-(4-(4-(2,6-dioxopiperidin-3-yl)-3-fluorobenzyl)piperazin-1-yl)pyridin-2-yl)-7H-pyrrolo[2,3-d]pyrimidin-4-yl)-2-methylphenyl)ethyl)-1,2,4-oxadiazole-5-carboxamide] | 1.58 | > 10000
3 | Cc1cc(-c2ncnc3[nH]c(-c4ccc(C5CC6CCC(C5)N6CC5CCN(c6ccc(N7CCC(=O)NC7=O)cn6)CC5)cc4)cc23)ccc1[C@@H](C)NC(=O)c1nc(C(C)(C)C)no1 (stereo partly drawn) [Example 182, 3-(tert-butyl)-N-((1R)-1-(4-(6-(4-(8-((1-(5-(2,4-dioxotetrahydropyrimidin-1(2H)-yl)pyridin-2-yl)piperidin-4-yl)methyl)-8-azabicyclo[3.2.1]octan-3-yl)phenyl)-7H-pyrrolo[2,3-d]pyrimidin-4-yl)-2-methylphenyl)ethyl)-1,2,4-oxadiazole-5-carboxamide] | 1.34 | 2220
4 | Cc1cc(-c2ncnc3[nH]c(-c4ccc(C5CC6CCC(C5)N6CC5CCN(c6ccc(N7CCC(=O)NC7=O)cc6)CC5)cc4)cc23)ccc1[C@@H](C)NC(=O)c1nc(C(C)(C)C)no1 (stereo partly drawn) [Example 183, 3-(tert-butyl)-N-((1R)-1-(4-(6-(4-(8-((1-(4-(2,4-dioxotetrahydropyrimidin-1(2H)-yl)phenyl)piperidin-4-yl)methyl)-8-azabicyclo[3.2.1]octan-3-yl)phenyl)-7H-pyrrolo[2,3-d]pyrimidin-4-yl)-2-methylphenyl)ethyl)-1,2,4-oxadiazole-5-carboxamide] | 1.4 | 1040
5 | Cc1cc(-c2ncnc3[nH]c(-c4ccc(N5CCN(CC6CCN(c7ccc(-n8ccc(=O)[nH]c8=O)cc7)CC6)CC5)nc4)cc23)ccc1[C@@H](C)NC(=O)c1nc(C(C)(C)C)no1 [Example 187, (R)-3-(tert-butyl)-N-(1-(4-(6-(6-(4-((1-(4-(2,4-dioxo-3,4-dihydropyrimidin-1(2H)-yl)phenyl)piperidin-4-yl)methyl)piperazin-1-yl)pyridin-3-yl)-7H-pyrrolo[2,3-d]pyrimidin-4-yl)-2-methylphenyl)ethyl)-1,2,4-oxadiazole-5-carboxamide] | 2.65 | > 10000
6 | Cc1cc(-c2ncnc3[nH]c(-c4ccc(N5CCN([C@H]6C[C@@H](c7ccc(N[C@H]8CCC(=O)NC8=O)cc7)C6)CC5)nc4)cc23)ccc1[C@@H](C)NC(=O)c1nc(C(C)(C)C)no1 [Example 188, 3-(tert-butyl)-N-((R)-1-(4-(6-(6-(4-((1R,3s)-3-(4-(((S)-2,6-dioxopiperidin-3-yl)amino)phenyl)cyclobutyl)piperazin-1-yl)pyridin-3-yl)-7H-pyrrolo[2,3-d]pyrimidin-4-yl)-2-methylphenyl)ethyl)-1,2,4-oxadiazole-5-carboxamide] | 3.03 | > 10000
7 | Cc1cc(-c2ncnc3[nH]c(-c4ccc(N5CCN([C@H]6C[C@@H](c7ccc(N[C@@H]8CCC(=O)NC8=O)cc7)C6)CC5)nc4)cc23)ccc1[C@@H](C)NC(=O)c1nc(C(C)(C)C)no1 [Example 189, 3-(tert-butyl)-N-((R)-1-(4-(6-(6-(4-((1S,3s)-3-(4-(((R)-2,6-dioxopiperidin-3-yl)amino)phenyl)cyclobutyl)piperazin-1-yl)pyridin-3-yl)-7H-pyrrolo[2,3-d]pyrimidin-4-yl)-2-methylphenyl)ethyl)-1,2,4-oxadiazole-5-carboxamide] | > 2000 | > 10000
8 | Cc1cc(-c2ncnc3[nH]c(-c4ccc(N5CCN([C@H]6C[C@@H](c7ccc(O[C@H]8CCC(=O)NC8=O)cc7)C6)CC5)nc4)cc23)ccc1[C@@H](C)NC(=O)c1nc(C(C)(C)C)no1 [Example 191, 3-(tert-butyl)-N-((R)-1-(4-(6-(6-(4-((1R,3s)-3-(4-(((S)-2,6-dioxopiperidin-3-yl)oxy)phenyl)cyclobutyl)piperazin-1-yl)pyridin-3-yl)-7H-pyrrolo[2,3-d]pyrimidin-4-yl)-2-methylphenyl)ethyl)-1,2,4-oxadiazole-5-carboxamide] | 1.59 | > 10000
9 | Cc1cc(-c2ncnc3[nH]c(-c4ccc(N5CCN([C@H]6C[C@@H](c7ccc(O[C@@H]8CCC(=O)NC8=O)cc7)C6)CC5)nc4)cc23)ccc1[C@@H](C)NC(=O)c1nc(C(C)(C)C)no1 [Example 192, 3-(tert-butyl)-N-((R)-1-(4-(6-(6-(4-((1S,3s)-3-(4-(((R)-2,6-dioxopiperidin-3-yl)oxy)phenyl)cyclobutyl)piperazin-1-yl)pyridin-3-yl)-7H-pyrrolo[2,3-d]pyrimidin-4-yl)-2-methylphenyl)ethyl)-1,2,4-oxadiazole-5-carboxamide] | > 2000 | > 10000

The remaining compounds from weak to strong by DC50 [1], led by results:

Row | DC50 [1] [nM] | SMILES | IC50 [2] [nM]
10 | 2.7 | Cc1cc(-c2ncnc3[nH]c(-c4ccc(N5CCN(CC6CCN(c7ccc(N8CC(=O)NC8=O)cc7)CC6)CC5)cn4)cc23)ccc1[C@@H](C)NC(=O)c1nc(C(C)(C)C)no1 [Example 184, (R)-3-(tert-butyl)-N-(1-(4-(6-(5-(4-((1-(4-(2,4-dioxoimidazolidin-1-yl)phenyl)piperidin-4-yl)methyl)piperazin-1-yl)pyridin-2-yl)-7H-pyrrolo[2,3-d]pyrimidin-4-yl)-2-methylphenyl)ethyl)-1,2,4-oxadiazole-5-carboxamide] | > 10000
11 | 1.04 | Cc1cc(-c2ncnc3[nH]c(-c4ncc(N5CCN(CC6CCN(c7ccc(N8CCC(=O)NC8=O)cc7)CC6)CC5)s4)cc23)ccc1[C@@H](C)NC(=O)c1nc(C(C)(C)C)no1 [Example 186, (R)-3-(tert-butyl)-N-(1-(4-(6-(5-(4-((1-(4-(2,4-dioxotetrahydropyrimidin-1(2H)-yl)phenyl)piperidin-4-yl)methyl)piperazin-1-yl)thiazol-2-yl)-7H-pyrrolo[2,3-d]pyrimidin-4-yl)-2-methylphenyl)ethyl)-1,2,4-oxadiazole-5-carboxamide] | > 10000
12 | 0.52 | Cc1cc(-c2ncnc3[nH]c(-c4ccc(C5(O)CCN(CC6CCN(c7ccc(N8CCC(=O)NC8=O)cc7)CC6)C5)cn4)cc23)ccc1[C@@H](C)NC(=O)c1nc(C(C)(C)C)no1 (stereo partly drawn) [Example 180, 3-(tert-butyl)-N-((1R)-1-(4-(6-(5-(1-((1-(4-(2,4-dioxotetrahydropyrimidin-1(2H)-yl)phenyl)piperidin-4-yl)methyl)-3-hydroxypyrrolidin-3-yl)pyridin-2-yl)-7H-pyrrolo[2,3-d]pyrimidin-4-yl)-2-methylphenyl)ethyl)-1,2,4-oxadiazole-5-carboxamide] | 985
13 | 0.5 | Cc1cc(-c2ncnc3[nH]c(-c4ccc(N5CCN(CC6CCN(c7ccc(N8CCC(=O)NC8=O)cc7)CC6)CC5)cn4)cc23)ccc1[C@@H](C)NC(=O)c1nnc(C(C)(C)C)o1 [Example 185, (R)-5-(tert-butyl)-N-(1-(4-(6-(5-(4-((1-(4-(2,4-dioxotetrahydropyrimidin-1(2H)-yl)phenyl)piperidin-4-yl)methyl)piperazin-1-yl)pyridin-2-yl)-7H-pyrrolo[2,3-d]pyrimidin-4-yl)-2-methylphenyl)ethyl)-1,3,4-oxadiazole-2-carboxamide] | > 10000
14 | 0.44 | C[C@@H](NC(=O)c1nc(C(C)(C)C)no1)c1cc(F)c(-c2ncnc3[nH]c(-c4ccc(N5CCN(CC6CCN(c7ccc(N8CCC(=O)NC8=O)cc7)CC6)CC5)cn4)cc23)cc1CO [Example 178, (R)-3-(tert-butyl)-N-(1-(4-(6-(5-(4-((1-(4-(2,4-dioxotetrahydropyrimidin-1(2H)-yl)phenyl)piperidin-4-yl)methyl)piperazin-1-yl)pyridin-2-yl)-7H-pyrrolo[2,3-d]pyrimidin-4-yl)-5-fluoro-2-(hydroxymethyl)phenyl)ethyl)-1,2,4-oxadiazole-5-carboxamide] | > 10000
15 | 0.28 | Cc1cc(-c2ncnc3[nH]c(-c4ccc(N5CCN(CC6CCN(c7ccc(N8CCC(=O)NC8=O)cc7)CC6)C(=O)C5)cc4)cc23)ccc1[C@@H](C)NC(=O)c1nc(C(C)(C)C)no1 [Example 190, (R)-3-(tert-butyl)-N-(1-(4-(6-(4-(4-((1-(4-(2,4-dioxotetrahydropyrimidin-1(2H)-yl)phenyl)piperidin-4-yl)methyl)-3-oxopiperazin-1-yl)phenyl)-7H-pyrrolo[2,3-d]pyrimidin-4-yl)-2-methylphenyl)ethyl)-1,2,4-oxadiazole-5-carboxamide] | > 10000
